In article PMC10891803, “Seleno-Warfare against Cancer: Decoding Antitumor Activity of Novel Acylselenoureas and Se-Acylisoselenoureas” (Pharmaceutics, 2024):

Key:
DU-145 = assay: MTT cell viability assay, DU-145; type: cell-based, human; conditions: 48 h; for percentage of cell growth, DU-145: 10 µM, MTT screening (Figure S1); for IC50: Homo sapiens, DU-145, MTT, mean ± SD of three experiments, read-out: IC50 DU-145 (Prostate)
Experimental: (§1) The cell lines were purchased from the American Type Culture Collection (ATCC). The four tumor cell lines used were as follows: MDA-MB-231 (triple-negative breast cancer), HTB-54 (lung cancer), DU-145 (prostate cancer), and HCT-116 (colon cancer), and the non-tumoral cell line 185-B5 (mammary tissue) were grown in Roswell Park Memorial Institute (RPMI) 1640 medium culture (Thermo Scientific, USA), supplemented with 10% fetal bovine serum (FBS) (Thermo Scientific, USA) and 1% of antibiotics (10,000 units/mL penicillin and 10 mg/mL streptomycin (Thermo Scientific, USA)). Cells were preserved in tissue culture flasks at 37 °C and 5% CO2. The culture medium was replaced every two to three days.
(§2) Cell viability was determined using the MTT colorimetric assay. A total of 10,000 cells were seeded in each well in a 96-well plate for 24 h. Then, cells were incubated with the corresponding concentration of each tested compound and with DMSO (1%) as control for 48 h. Each compound was dissolved in DMSO at a stock concentration of 0.01 M. Firstly, each compound was tested at 2 concentrations (10 µM and 50 µM) in four human tumoral cell lines MDA-MB-231, HTB-54, DU-145, and HCT-116. Serial dilutions from stock concentration with culture medium were prepared. […] The cell viability was determined by the addition of 20 µL of MTT and its incubation for 2.5 h. Later, the culture medium was removed, and 50 µL of DMSO was added to dissolve formazan crystals. The absorbance was measured at 550 nm. Inhibitory concentration 50 (IC50) and selectivity index (SI) were calculated. Three different experiments were performed independently.
(§3) Cell viability results are expressed as the mean ± standard deviation (SD), and experiments were independently performed thrice in triplicates. IC50 values were determined using a non-linear curve regression analysis calculated by OriginPro 9.0 software.

HTB-54 = assay: MTT cell viability assay, HTB-54; type: cell-based, human; conditions: 48 h; for percentage of cell growth, HTB-54: 10 µM, MTT screening (Figure S1); for IC50: Homo sapiens, HTB-54, MTT, mean ± SD of three experiments, read-out: IC50 HTB-54 (Lung)
Experimental: as §1, §2, §3

MDA-MB-231 = assay: MTT cell viability assay, MDA-MB-231; type: cell-based, human; conditions: for percentage of cell growth, MDA-MB-231: 10 µM, MTT screening (Figure S1); for percentage of cell growth, MDA-MB-231 / IC50: 48 h; for IC50: Homo sapiens, MDA-MB-231, MTT, mean ± SD of three experiments, read-out: IC50 MDA-MB-231 (Breast); for Selectivity index (SI): IC50 184-B5/IC50 MDA-MB-231
Experimental: as §1, §2, §3

184-B5 = assay: MTT cell viability assay, non-malignant 184-B5; type: cell-based; conditions: Homo sapiens, 48 h, mean ± SD of three experiments, read-out: IC50 184-B5 (Breast, non-tumoral)
Experimental: as §1, §2, §3

HCT-116 = assay: MTT cell viability assay, HCT-116; type: cell-based, human; conditions: 10 µM, 48 h, MTT screening (Figure S1)
Experimental: as §1, §2, §3

[1] = tested on: MDA-MB-231, HTB-54, DU-145, and HCT-116; assay: MTT initial screening in four tumor cell lines; type: cell-based; conditions: Homo sapiens, in at least three cell lines, 48 h, read-out: cell growth inhibition
Experimental: as §2

[2] = tested on: panel of 60 cancer cell lines; assay: NCI60 One-Dose screening; type: cell-based; conditions: 1·10^−5 M, 48 h, mean of 60 cancer cell lines
Experimental: (§4) The ten compounds with the highest cell growth inhibition activity were submitted to the Developmental Therapeutics Program (DTP) of the National Cancer Institute (NCI). The assay consists of the evaluation of the cytotoxicity by a One-Dose screening at 10^−5 M against a panel of 60 cancer cell lines of different tumors (leukemia, lung, central nervous system (CNS), melanoma, ovarian, renal, prostate, and breast cancer cell lines). […] A range of 5000–40,000 cells/well were seeded and cultured in RPMI 1640 containing 5% of FBS and 2 mM L-glutamine and were inoculated into 96-well microtiter plates in 100 µL. The microtiter plates are incubated at 37 °C and 5% humidified CO2 for 24 h prior to the addition of experimental drugs. After that, an experimental drug was added, and the microtiter was incubated for 48 h.

[3] = tested on: panel of 60 cancer cell lines; assay: NCI60 Five-Dose assay; type: cell-based; conditions: Five-Dose assay 0.01–100 µM, 48 h, 60 cell line panel
Experimental: as §4

With `O=C(NC(=[Se])NC1CCCCC1)c1ccc2c(c1)OCO2` [Compound 12] the “percentage of cell growth, DU-145” value (DU-145) was -74.14%, the IC50 (DU-145) was 5.22 ± 0.13 µM and the “percentage of cell growth, HTB-54” value (HTB-54) was -34.26%. For the same compound, the IC50 (HTB-54) was 10.7 ± 13.7 µM, the “percentage of cell growth, MDA-MB-231” value (MDA-MB-231) was -7.07% and the IC50 (MDA-MB-231) was 30.7 ± 2.31 µM. For the same compound, the “Selectivity index (SI)” value (MDA-MB-231) was 1.28, the IC50 (184-B5) was 39.3 ± 18.4 µM and the “percentage of cell growth, HCT-116” value (HCT-116) was 76.40%. The inhibition at 10 µM [1] was > 50% and the melting point was 117 to 119 °C.
In the case of `O=C(/C=C/c1cccs1)NC(=[Se])NC1CCCCC1` [Compound 13], the “percentage of cell growth, DU-145” value (DU-145) is reported as 52.85%, the “percentage of cell growth, HTB-54” value (HTB-54) is reported as 39.11% and the “percentage of cell growth, MDA-MB-231” value (MDA-MB-231) is reported as -21.69%. The “percentage of cell growth, HCT-116” value (HCT-116) was 145.89%.
In the case of `O=C(/C=C/c1ccc2c(c1)OCO2)NC(=[Se])NC1CCCCC1` [Compound 14], the “percentage of cell growth, DU-145” value (DU-145) is reported as 10.32%, the “percentage of cell growth, HTB-54” value (HTB-54) is reported as 44.98% and the “percentage of cell growth, MDA-MB-231” value (MDA-MB-231) is reported as 83.89%. The “percentage of cell growth, HCT-116” value (HCT-116) was 101.60% and the melting point was 149 to 151 °C.
With `CC(C)NC(=[Se])NC(=O)c1ccccc1` [Compound 15] the “percentage of cell growth, DU-145” value (DU-145) was -80.57%, the IC50 (DU-145) was 5.19 ± 1.55 µM and the “percentage of cell growth, HTB-54” value (HTB-54) was -57.90%. For the same compound, the IC50 (HTB-54) was 26.4 ± 16.9 µM, the “percentage of cell growth, MDA-MB-231” value (MDA-MB-231) was -59.41% and the IC50 (MDA-MB-231) was 24.5 ± 7.55 µM. For the same compound, the “Selectivity index (SI)” value (MDA-MB-231) was 0.34, the IC50 (184-B5) was 8.51 ± 4.81 µM and the “percentage of cell growth, HCT-116” value (HCT-116) was 123.90%. The inhibition at 10 µM [1] was > 50%, the “mean value of cell growth, One-Dose assay” value [2] was −31.58% and the GI50 [3] was < 2 µM. For the same compound, the melting point was 125 to 127 °C.
With `CC(=O)Oc1ccccc1C(=O)NC(=[Se])NC(C)C` [Compound 16] the “percentage of cell growth, DU-145” value (DU-145) was -67.79%, the IC50 (DU-145) was 11.4 ± 3.07 µM and the “percentage of cell growth, HTB-54” value (HTB-54) was -0.98%. The IC50 (HTB-54) was 23 ± 23.5 µM, the “percentage of cell growth, MDA-MB-231” value (MDA-MB-231) was 24.61% and the IC50 (MDA-MB-231) was 10.2 ± 13.6 µM. For the same compound, the “Selectivity index (SI)” value (MDA-MB-231) was 2.17, the IC50 (184-B5) was 22.2 ± 3.41 µM and the “percentage of cell growth, HCT-116” value (HCT-116) was 86.98%. The inhibition at 10 µM [1] was > 50% and the melting point was 75 to 77 °C.
For `CC(C)NC(=[Se])NC(=O)c1cccs1` [Compound 17], the “percentage of cell growth, DU-145” value (DU-145) was -72.56%, the IC50 (DU-145) was 5.12 ± 0.07 µM and the “percentage of cell growth, HTB-54” value (HTB-54) was -22.97%. The IC50 (HTB-54) was 5.09 ± 0.34 µM, the “percentage of cell growth, MDA-MB-231” value (MDA-MB-231) was 20.49% and the IC50 (MDA-MB-231) was 10.2 ± 0.39 µM. The “Selectivity index (SI)” value (MDA-MB-231) was 4.15, the IC50 (184-B5) was 42.2 ± 11.4 µM and the “percentage of cell growth, HCT-116” value (HCT-116) was 115.35%. For the same compound, the inhibition at 10 µM [1] was > 50% and the melting point was 120 to 122 °C.
For `CC(C)NC(=[Se])NC(=O)/C=C/c1ccccc1` [Compound 18], the “percentage of cell growth, DU-145” value (DU-145) was 15.40%, the “percentage of cell growth, HTB-54” value (HTB-54) was 57.40% and the “percentage of cell growth, MDA-MB-231” value (MDA-MB-231) was 65.14%. The “percentage of cell growth, HCT-116” value (HCT-116) was 75.78%.
In the case of `CC(C)NC(=[Se])NC(=O)c1ccc2c(c1)OCO2` [Compound 19], the “percentage of cell growth, DU-145” value (DU-145) is reported as -82.75%, the IC50 (DU-145) is reported as 5.13 ± 0.02 µM and the “percentage of cell growth, HTB-54” value (HTB-54) is reported as -4.52%. The IC50 (HTB-54) was 21.9 ± 9.1 µM, the “percentage of cell growth, MDA-MB-231” value (MDA-MB-231) was -45.41% and the IC50 (MDA-MB-231) was 12.7 ± 10.8 µM. The “Selectivity index (SI)” value (MDA-MB-231) was 2.89, the IC50 (184-B5) was 36.8 ± 14.5 µM and the “percentage of cell growth, HCT-116” value (HCT-116) was 97.76%. For the same compound, the inhibition at 10 µM [1] was > 50%.
For `CC(C)NC(=[Se])NC(=O)/C=C/c1cccs1` [Compound 20], the “percentage of cell growth, DU-145” value (DU-145) was -13.89%, the “percentage of cell growth, HTB-54” value (HTB-54) was 38.63% and the “percentage of cell growth, MDA-MB-231” value (MDA-MB-231) was 65.39%. The “percentage of cell growth, HCT-116” value (HCT-116) was 109.34% and the melting point was 148 to 149 °C.
With `CC(C)NC(=[Se])NC(=O)/C=C/c1ccc2c(c1)OCO2` [Compound 21] the “percentage of cell growth, DU-145” value (DU-145) was 76.50%, the “percentage of cell growth, HTB-54” value (HTB-54) was 27.21% and the “percentage of cell growth, MDA-MB-231” value (MDA-MB-231) was -6.05%. The “percentage of cell growth, HCT-116” value (HCT-116) was 89.57% and the melting point was 172 to 174 °C.
For `CC(C)NC(=[Se])NC(=O)c1ccccc1O` [Compound 22], the “percentage of cell growth, DU-145” value (DU-145) was -6.12%, the “percentage of cell growth, HTB-54” value (HTB-54) was 3.08% and the “percentage of cell growth, MDA-MB-231” value (MDA-MB-231) was 73.13%. For the same compound, the “percentage of cell growth, HCT-116” value (HCT-116) was 80.19% and the melting point was 162 to 164 °C.
